This note sets out measurements from patent US10821115B2, “Compounds that inhibit Mcl-1 protein” (priority 2017, dated 2020).

The test has as its system human multiple myeloma cell line, OPM-2. The test is described as follows: Cell viability assay (OPM-2 10 FBS), CellTiter-Glo. It is filed as cell-based. The method, then:
Cell viability assay (OPM-2 10 FBS)
The human multiple myeloma cell line, OPM-2, was cultured in complete growth medium containing RPMI 1640 and 10% fetal bovine serum (FBS). Cells were seeded into 384-well plates at 3000 cells/well density in complete growth medium containing 10% FBS, and incubated for 16 h with serially diluted test compounds in a 37° C. incubator with 5% CO2. Cell viability was tested using CellTiter-Glo® assay (Promega, Madison, Wis.) according to the manufacturer recommendations. Luminescence was determined using an EnVision® Multilabel plate reader 25 min after the addition of detection reagent. IC50 values were then calculated with Xlfit using a logistical 4-parameter fit model in GraphPad Prism (GraphPad Software, San Diego, Calif.) or in Genedata Screener® (Genedata, Basel, Switzerland).
A general note: ATP-based viability assays read luminescence as a measure of living cells.

The mark [1] stands for this setting: Homo sapiens, OPM-2, 16 h, read-out: OPM-2 10% FBS IC50 IP, OPM-2 cells, 10% FBS, 16 h incubation.
Setting [2] is: read-out: OPM-2 10% FBS IC50 IP, OPM-2 cells, 10% FBS, 16 h incubation.

pIC50: −log10 of the molar value. Where two headings read alike, the source gives them in different places.

One may read the pIC50 as the IC50 on a negative log10 scale, so that one unit is a factor of ten. Regarding `CO[C@@]1(CN2CCC(N3CCOCC3)CC2)/C=C/C[C@H](C)[C@@H](C)S(=O)(=O)NC(=O)c2ccc3c(c2)N(C[C@@H]2CC[C@H]21)C[C@@]1(CCCc2cc(Cl)ccc21)CO3` [Example 263, (1S,3′R,6′R,7′S,8′E,11′S,12′R)-6-chloro-7′-methoxy-11′,12′-dimethyl-7′-((4-(4-morpholinyl)-1-piperidinyl)methyl)-3,4-dihydro-2H,15′H-spiro[naphthalene-1,22′-[20]oxa[13]thia[1,14]diazaetracyclo [14.7.2.0~3,6~.0~19,24~]pentacosa[8,16,18,24]tetraen]-15′-one 13′,13′-dioxide], under setting [1], the pIC50 is 6.91.

As for `CCO[C@@]1(CN2CCN3CCOC[C@@H]3C2)/C=C/C[C@H](C)[C@@H](CCOC)S(=O)(=O)NC(=O)c2ccc3c(n2)N(C[C@@H]2CC[C@H]21)C[C@@]1(CCCc2cc(Cl)ccc21)CO3` [Example 369, (1S,3′R,6′R,7′S,8′E,11′S,12′R)-6-chloro-7′-ethoxy-7′-((9aS)-hexahydropyrazino[2,1-c][1,4]oxazin-8(1H)-ylmethyl)-12′-(2-methoxyethyl)-11′-methyl-3,4-dihydro-2H,15′H-spiro[naphthalene-1,22′-[20]oxa[13]thia[1,14,25]triazatetracyclo [14.7.2.0~3,6~.0~19,24~]pentacosa[8,16,18,24]tetraen]-15′-one 13′,13′-dioxide], the negative logarithm of the IC50 (pIC50) under setting [1] was 7.15.

`CO[C@@]1(C#CCCc2ccncn2)/C=C/C[C@H](C)[C@@H](C)S(=O)(=O)NC(=O)c2ccc3c(c2)N(C[C@@H]2CC[C@H]21)C[C@@]1(CCCc2cc(Cl)ccc21)CO3` [Example 100519, (1S,3′R,6′R,7′S,8′E,11′S,12′R)-6-chloro-7′-methoxy-11′,12′-dimethyl-7′-(4-(4-pyrimidinyl)-1-butyn-1-yl)-3,4-dihydro-2H,15′H-spiro[naphthalene-1,22′-[20]oxa[13]thia[1,14]diazatetracyclo [14.7.2.0~3,6~.0~19,24~]pentacosa[8,16,18,24]tetraen]-15′-one 13′,13′-dioxide]: the negative logarithm of the IC50 (pIC50) (read-out: OPM-2 10% FBS IC50 IP, OPM-2 cells, 10% FBS, 16 h, CellTiter-Glo) was 6.86.

As to `CC[C@@H]1CC/C=C/[C@@](CN2CCN3CCCC[C@@H]3C2)(OC)[C@@H]2CC[C@H]2CN2C[C@@]3(CCCc4cc(Cl)ccc43)COc3ccc(cc32)C(=O)N(C)S1(=O)=O` [Example 33, (1 S,3′R,6′R,7′R,8′E,12′R)-6-chloro-12′-ethyl-7′-methoxy-14′-methyl-7′-((9aR)-octahydro-2H-pyrido[1,2-a]pyrazin-2-ylmethyl)-3,4-dihydro-2H,15′H-spiro[naphthalene-1,22′-[20]oxa[13]thia[1,14]diazatetracyclo[14.7.2.0-3,6˜.0˜19,24˜]pentacosa[8,16,18,24]tetraen]-15′-one 13′,13′-dioxide], the pIC50 under setting [1] was 5.25.

Turning to `CO[C@@]1(CN2CCN3CCN(C(C)=O)C[C@@H]3C2)/C=C/C[C@H](C)[C@@H](C)S(=O)(=O)NC(=O)c2ccc3c(c2)N(C[C@@H]2CC[C@H]21)C[C@@]1(CCCc2cc(Cl)ccc21)CO3` [Example 214], the pIC50 under setting [2] is 7.08.

Take `CO[C@@]1(CC(=O)NC(C)(C)C(=O)O)/C=C/C[C@H](C)[C@@H](C)S(=O)(=O)NC(=O)c2ccc3c(c2)N(C[C@@H]2CC[C@H]21)C[C@@]1(CCCc2cc(Cl)ccc21)CO3` [Example 100546, N-(((1S,3′R,6′R,7′S,8′E,11′S,12′R)-6-chloro-7′-methoxy-11′,12′-dimethyl-13′,13′-dioxido-15′-oxo-3,4-dihydro-2H-spiro[naphthalene-1,22′-[20]oxa[13]thia[1,14]diazatetracyclo [14.7.2.0~3,6~.0~19,24~]pentacosa[8,16,18,24]tetraen]-7′-yl)acetyl)-2-methylalanine]: the negative-log IC50 (pIC50) (Homo sapiens, OPM-2, 16 h, read-out: OPM-2 10% FBS IC50 IP, OPM-2 cells, 10% FBS, 16 h, CellTiter-Glo) was 6.36.

`CC(C)N(CCO)C[C@]1(O)/C=C/C[C@H](C)[C@@H](C)S(=O)(=O)NC(=O)c2ccc3c(c2)N(C[C@@H]2CC[C@H]21)C[C@@]1(CCCc2cc(Cl)ccc21)CO3` [Example 126, (1 S,3′R,6′R,7′S,8′E,11′S,12′R)-6-chloro-7′-hydroxy-7′-(((2-hydroxyethyl)(1-methylethyl)amino)methyl)-11′,12′-dimethyl-3,4-dihydro-2H, 15′H-spiro[naphthalene-1,22′-[20]oxa[13]thia[1,14]diazatetracyclo[14.7.2.0-3,6˜.0˜19,24˜]pentacosa[8,16,18,24]tetraen]-15′-one 13′,13′-dioxide]: under setting [1], the pIC50 was 6.05.

On to `C[C@@H]1[C@@H](C)C/C=C/[C@](O)(CN2CCN3CCOC[C@@H]3C2)[C@@H]2CC[C@H]2CN2C[C@@]3(CCCc4cc(Cl)ccc43)COc3ccc(cc32)C(=O)NS1(=O)=O` [Example 213, (1 S,3′R,6′R,7′R,8′E,11′S,12′R)-6-chloro-7′-((9aS)-hexahydropyrazino[2,1-c][1,4]oxazin-8(1H)-ylmethyl)-7′-hydroxy-11′,12′-dimethyl-3,4-dihydro-2H, 15′H-spiro[naphthalene-1,22′-[20]oxa[13]thia[1,14]diazatetracyclo[14.7.2.0-3,6˜.0˜19,24˜]pentacosa[8,16,18,24]tetraen]-15′-one 13′,13′-dioxide], for which the pIC50 under setting [2] was 6.40.

Take `CCO[C@]1(CN2CCN(C(C)C)CC2)/C=C/C[C@H](C)[C@@H](CCOC)S(=O)(=O)NC(=O)c2ccc3c(c2)N(C[C@@H]2CC[C@H]21)C[C@@]1(CCCc2cc(Cl)ccc21)CO3` [Example 16, (1S,3′R,6′R,7′R,8′E,11′S,12′R)-6-chloro-7′-ethoxy-12′-(2-methoxyethyl)-11′-methyl-7′-((4-(1-methylethyl)-1-piperazinyl)methyl)-3,4-dihydro-2H, 15′H-spiro[naphthalene-1,22′-[20]oxa[13]thia[1,14]diazatetracyclo[14.7.2.0-3,6˜.0˜19,24˜]pentacosa[8,16,18,24]tetraen]-15′-one 13′,13′-dioxide]: under setting [1], the negative-log IC50 (pIC50) was 7.28.

For the molecule `CO[C@]1(CN2CCN3CCN(C(C)=O)C[C@@H]3C2)/C=C/C[C@H](C)[C@@H](C)S(=O)(=O)NC(=O)c2ccc3c(c2)N(C[C@@H]2CC[C@H]21)C[C@@]1(CCCc2cc(Cl)ccc21)CO3` (single isomer, unassigned) [Example 230], under setting [2], the pIC50 is 7.15.

Consider `CO[C@]1(CN2CCN(C3(C)COC3)CC2)/C=C/C[C@H](C)[C@@H](C)S(=O)(=O)NC(=O)c2ccc3c(c2)N(C[C@@H]2CC[C@H]21)C[C@@]1(CCCc2cc(Cl)ccc21)CO3` [Example 319, (1S,3′R,6′R,7′R,8′E,11′S,12′R)-6-chloro-7′-methoxy-11′,12′-dimethyl-7′-((4-(3-methyl-3-oxetanyl)-1-piperazinyl)methyl)-3,4-dihydro-2H,15′H-spiro[naphthalene-1,22′-[20]oxa[13]thia[1,14]diazatetracyclo [14.7.2.0~3,6~.0~19,24~]pentacosa[8,16,18,24]tetraen]-15′-one 13′,13′-dioxide], for which the pIC50 under setting [1] was 7.06.

As for `CO[C@@]1(C(=O)N(C)C)/C=C/C[C@H](C)[C@@H](C)S(=O)(=O)NC(=O)c2ccc3c(c2)N(C[C@@H]2CC[C@H]21)C[C@@]1(CCCc2cc(Cl)ccc21)CO3` [Example 176, (1S,3′R,6′R,7′S,8′E,11′S,12′R)-6-chloro-7′-methoxy-N,N, 11′,12′-tetramethyl-15′-oxo-3,4-dihydro-2H-spiro[naphthalene-1,22′-[20]oxa[13]thia[1,14]diazatetracyclo[14.7.2.0-3,6˜.0˜19,24˜]pentacosa[8,16,18,24]tetraene]-7′-carboxamide 13′,13′-dioxide], the negative-log IC50 (pIC50) under setting [2] is 6.83.
